{
  "source": "patent US9605026B2",
  "about": "“Hydrogen-bond surrogate peptides and peptidomimetics for p53 reactivation” (New York University, priority 2013, dated 2017)",
  "key": {"[1]": {"test_system": "p53", "assay": "p53 transcriptional activity (Cignal p53 luciferase reporter) in UMSCC47 cells", "format": "cell-based, human", "settings": "UMSCC47 (HPV-positive), 10 μM, 24 hours, vs control (vehicle)", "source_text": "(§1) FIG. 5A is an schematic illustration showing that CH1 has two distinct target sites. HIF1-α/p300 structures were used as guides to design helix mimetics that target site A and site B on the CH1 domain of p300. […] CH1iA (SEQ ID NO: 7) and CH1iB (SEQ ID NO: 8) were designed to mimic two helices from the C-terminal domain of HIF-1α. The peptides were locked into the helical conformation by the hydrogen bond surrogate method. FIG. 5C is a graph of p53 activity. UMSCC47 (left) and UMSCC74A (right) cells were co-transfected with a p53 Firefly luciferase reporter plasmid and a control Renilla luciferase plasmid. After 24 hours, cells were treated with control (vehicle), CH1iA (10 μM), or CH1iB (10 μM) for 24 hours. Firefly luciferase activity was normalized to Renilla luciferase activity to control for transfection efficiency. Data is normalized to control and presented as mean±SEM. *P<0.05, n=3. FIG. 5D is a western blot showing total and acetylated p53 levels. UMSCC47 (left) and UMSCC74A (right) cells were treated with control (vehicle), CH1iA (10 μM), or CH1iB (10 μM) for 24 hours. Cell lysates were immunoblotted with anti-p53 or anti-acetylated[K382]-p53 antibody. FIG. 5E is a pair of graphs of p300, p53, p21, miR-34a, and miR-200c expression. UMSCC47 (top panel) and UMSCC74A (bottom panel) cells were treated with control (vehicle), CH1iA (10 μM), or CH1iB (10 μM) for 24 hours. mRNA expression was determined using qPCR with validated TaqMan assays. Data is normalized to control cells and presented as mean±SEM. *P<0.01, control vs. CH1iB, n=3. FIG. 5F is a western blot showing HPV16 E6-p300 association. UMSCC47 cells were treated with control (vehicle), CH1iA (10 μM), or CH1iB (10 μM) for 24 hours. Cell lysates were extracted, immunoprecipitated with anti-p300 antibody, and immunoblotted with anti-E6 antibody. Cell lysates were immunoblotted with anti-E6 or anti-p300 antibody for input control. FIG. 5G is a set of graphs of cell proliferation. UMSCC47 (top left panel), UMSCC74A (top right panel), and IMR90 (human normal fibroblasts) (bottom panel) cells were treated with control (vehicle), CH1iA (10 μM), CH1iB (10 μM), cis-platinum (10 μM), CH1iA (10 μM) and cis-platinum (10 μM), or CH1iB (10 μM) and cis-platinum (10 μM) for 24, 48, or 72 hours. Data is normalized to Day 0 and presented as mean±SEM. *P<0.01, control vs. CH1iB or cis-platinum, **P<0.01 CH1iB or cis-platinum vs. CH1iB and cis-platinum, n=6.\nFIG. 6A is a western blot showing total and acetylated p53 levels. […] UMSCC47 cells were treated with control (vehicle), CH1iB (10 μM), cis-platinum (10 μM), or CH1iB (10 μM) and cis-platinum (10 μM) for 24 hours. mRNA expression was determined using qPCR with validated TaqMan assays. […]"}, "[2]": {"test_system": "UMSCC47 cells", "assay": "Cell proliferation (MTT) in UMSCC47 cells", "format": "cell-based, human", "source_text": "as §1\nFIG. 7A is a graph of p53 transcriptional activity. UMSCC47 cells were co-transfected with a p53 Firefly luciferase reporter plasmid and a control Renilla luciferase plasmid. After 24 hours, cells were treated with control (vehicle) or CH1iB-mut (10 μM) for 24 hours. Firefly luciferase activity was normalized to Renilla luciferase activity to control for transfection efficiency. Data is presented as mean±SEM. *P<0.05, n=5. FIG. 7B is a graph of cell proliferation. UMSCC47 cells were treated with control (vehicle), CH1iB-mut (10 μM), cis-platinum (10 μM), or CH1iB-mut (10 μM) and cis-platinum (10 μM) for 24 or 48 hours. Data is normalized to Day 0 and presented as mean±SEM. *P<0.01, control or CH1iB-mut vs. cis-platinum or cis-platinum+CH1iB-mut, n=6.\nCell proliferation was assessed using the MTT reagent (Roche Molecular Biochemicals, Nutley, N.J.) to detect metabolic active cells. Absorbance was measured at 570 nm in the Spectra Max 190 ELISA reader (Molecular Devices, Sunnyvale, Calif.) after overnight incubation. […]"}},
  "data": [
    {"substance": "XELA*RAADQ-NH2 (ELXRAADQ; HBS: 4-pentenoic acid, N-allylalanine; C-terminal amide; CH1iB-MUT)", "values": [
      {"measurement": "p53 activity increase", "setting": "[1]", "result": 14, "unit": "%"},
      {"measurement": "effect on anti-proliferative efficacy of cis-platinum (combination)", "setting": "[2]; UMSCC47, 10 μM with cis-platinum 10 μM", "result": "no effect"},
      {"measurement": "cell proliferation, single-agent", "setting": "[2]; UMSCC47, 10 μM, 24-72 hours", "result": "no effect"}
    ]}
  ]
}
